The target in assay [1] is T1, rabbit mGPa (Oryctolagus cuniculus, UniProt P00489).
T1 construct: purchased Creative Enzymes
T1 sequence (P00489 2-843 limits assumed): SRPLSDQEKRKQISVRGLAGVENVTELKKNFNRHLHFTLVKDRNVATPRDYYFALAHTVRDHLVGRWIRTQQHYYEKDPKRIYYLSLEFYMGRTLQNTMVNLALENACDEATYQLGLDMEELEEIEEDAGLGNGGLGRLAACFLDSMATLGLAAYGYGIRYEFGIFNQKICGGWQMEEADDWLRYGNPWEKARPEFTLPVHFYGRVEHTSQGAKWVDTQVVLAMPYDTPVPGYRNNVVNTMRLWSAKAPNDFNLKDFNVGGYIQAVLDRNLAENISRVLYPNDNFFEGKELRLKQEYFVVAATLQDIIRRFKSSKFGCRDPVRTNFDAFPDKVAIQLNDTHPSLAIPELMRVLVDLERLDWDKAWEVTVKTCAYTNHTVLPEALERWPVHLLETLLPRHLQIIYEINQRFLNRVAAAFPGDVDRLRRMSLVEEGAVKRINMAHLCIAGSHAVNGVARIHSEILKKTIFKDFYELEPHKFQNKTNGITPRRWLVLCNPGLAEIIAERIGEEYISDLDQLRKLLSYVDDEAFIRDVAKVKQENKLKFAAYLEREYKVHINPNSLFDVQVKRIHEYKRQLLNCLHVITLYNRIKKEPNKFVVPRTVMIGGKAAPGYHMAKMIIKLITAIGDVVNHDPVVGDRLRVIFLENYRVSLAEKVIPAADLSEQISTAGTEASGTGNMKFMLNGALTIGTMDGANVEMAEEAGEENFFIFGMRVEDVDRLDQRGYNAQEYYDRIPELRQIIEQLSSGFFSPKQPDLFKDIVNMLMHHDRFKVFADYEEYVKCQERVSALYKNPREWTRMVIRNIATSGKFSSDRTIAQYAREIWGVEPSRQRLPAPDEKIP
Kind of assay: In vitro glycogen phosphorylase inhibition assay (direction of glycogen synthesis, colorimetric phosphate). Type of assay: biochemical. To be noted: no glucose; mean ± SEM; read-out: GPa IC50 value. As for the experimental part:
The GP activity was measured using a previously optimized and validated method. In each assay, GP activity was measured by the direction of glycogen synthesis, which involved monitoring the colorimetric determination of inorganic phosphate deriving from glucose 1-phosphate. […] The enzymatic reaction was then started with the addition of a 50 mM HEPES buffer solution, with a pH of 7.2, containing 100 mM KCl, 2.5 mM MgCl2, 0.25 mM glucose 1-phosphate, and 0.25 mg/mL glycogen incubated for 30 min at 37 °C. After this incubation time, the reagent for colorimetric phosphate quantitation, BIOMOL® Green, was added to the reaction mixture. The reaction was monitored in a microplate reader (Synergy HT, BioTek Instruments, Winooski, VT, USA) at 620 nm.

Assay [2] has as its target T1, rabbit mGPa. Kind of assay: In vitro effect of glucose on inhibitor potency (GPa inhibition with 0, 5, 10 mM glucose). The note with it: for IC50: mean ± SEM, read-out: GPa IC50 value; for inhibition at 40 µM: at 40 μM (highest concentration tested), read-out: GPa inhibitory activity (%). It counts as biochemical. As for the experimental part: The method was performed as described in Section 2.2, with slight modifications. […] The enzymatic reaction was then started with the addition of a 50 mM HEPES buffer solution with a pH of 7.2 containing 100 mM KCl, 2.5 mM MgCl2, 0.25 mM glucose 1-phosphate, and 0.25 mg/mL glycogen. This buffer was used without glucose, or it was enriched with 5 and 10 mM of glucose and was incubated for 30 min at 37 °C in the reaction mixture. After this incubation time, BIOMOL® Green was added, and the reaction was monitored in a microplate reader (Synergy HT, BioTek Instruments, Winooski, VT, USA) at 620 nm.

A further assay concerns GP. Further details: method as in PMID 18494482. The note with it: cited from earlier work.
The subject of the next assay is GPb. More on the design: method as in PMID 16317787. To be noted: direction of glycogen breakdown; cited from earlier work.
Assay [3] concerns rabbit mGPa and mGPb, together with human lGPa. More on the design: method as in PMID 32771768. The note with it: direction of glycogen synthesis; cited from earlier work.
The target in assay [4] is T1, rabbit mGPa. Further details: method as in PMID 16317787. To be noted: direction of glycogen breakdown; cited from earlier work.

Like-named read-outs stand apart in the source and are kept apart here. Where only a bound is given, the exact number is not on record here.

A word on the IC50: it is the concentration at which inhibition is half-maximal. In the case of `COc1cc(O)c2c(=O)cc(/C=C/C=C/c3ccc(O)c(O)c3)oc2c1` [Compound 33], the half-maximal inhibitory concentration (IC50) at rabbit mGPa [1] and on rabbit mGPa [2] (0 mM of glucose) was 15.9 ± 1.1 µM in each case. The inhibition at 40 µM at rabbit mGPa [2] (5 mM of glucose) was 53.9 ± 2.5%; at rabbit mGPa [2] (10 mM of glucose) it was less than 30%.
Take `O=c1cc(-c2ccccc2)oc2cc(O)cc(O)c12` [Compound 38, Chrysin]: the IC50 in the assay with GP is more than 200 µM; with GPb it was 15.3 ± 1 µM; on rabbit mGPa [1], 19.3 ± 1.5 µM; at rabbit mGPa [2] (0 mM of glucose), 19.3 ± 1.5 µM; on rabbit mGPa [2] (5 mM of glucose) it was 8.8 ± 0.8 µM; at rabbit mGPa [2] (10 mM of glucose), 5.2 ± 0.3 µM. The IC50 at rabbit mGPa [4] is 27.5 µM. Also, the “potency relative to flavonoid 45, quercetin” value in assay [3] is approximately 10 fold.
Take `O=c1cc(-c2ccccc2)oc2c(O)c(O)cc(O)c12` [Compound 46, Norwogonin]: the IC50 at rabbit mGPa [1] stood at 13.2 ± 1.4 µM; at rabbit mGPa [2] (0 mM of glucose), 13.2 ± 1.4 µM; on rabbit mGPa [2] (5 mM of glucose), 8.9 ± 1 µM; at rabbit mGPa [2] (10 mM of glucose) it was 3.7 ± 0.5 µM.
Consider `O=c1cc(-c2ccccc2)oc2cc(O)c(O)c(O)c12` [Compound 47, Baicalein], for which the IC50 was 10.2 ± 1.2 µM with GPb, 23.5 ± 2.9 µM at rabbit mGPa [1] and 11.2 ± 1.5 µM on rabbit mGPa [4].

These data come from publication PMC8781192, “An In Silico and an In Vitro Inhibition Analysis of Glycogen Phosphorylase by Flavonoids, Styrylchromones, and Pyrazoles” (Nutrients, 2022).
